Tested on: MDA-MB-231 Axl+ TNBC cells
Assay: MDA-MB-231 Matrigel cell invasion assay
Assay type: cell-based
Conditions: Homo sapiens
Description: Inhibition of GAS6-induced invasion/migration was evaluated in models for triple-negative breast (MDA-MB-231) and ovarian (OVCAR8) cancers using the Corning® Matrigel® or collagen invasion assays, respectively, and using an AXL decoy receptor which comprises a soluble AXL variant polypeptide comprising amino acid changes relative to wild-type AXL sequence (SEQ ID NO:1) at the following positions: (a) glycine 32; (b) aspartic acid 87; (c) alanine 72; (d) valine 92; and (e) glycine 127, lacking the AXL transmembrane domain, lacking a functional FN domain, and comprising an Fc domain linked to the soluble AXL variant polypeptide by a peptide linker (hereinafter referred to as AVB-S6-500).
AVB-S6-500 and MDA-MB-231 Axl^+ TNBC cells in serum free media were seeded in the top of a Matrigel-coated Boyden Chamber. Media with serum as a chemo-attractant was added to the chamber bottom. After 24 hours incubation, the number of cells that migrated across the Matrigel were counted and expressed as the fraction of invasive cells relative to a PBS control (FIG. 1A).
Representative images from the AVB-S6-500 treated MDA-MB-231 cells are depicted in FIG. 2.

COc1cc(Nc2c(C#N)cnc3cc(OCCCN4CCN(C)CC4)c(OC)cc23)c(Cl)cc1Cl [Bosutinib, bosutinib] showed an IC50 of 24 nM.
